Test results taken from PubChem BioAssay (NCI).
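All cell lines were grown in 96-well plates and treated with compound for 48 hours. At the TGI there is no net growth.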

Test system: NCI-H522 lung
Assay: NCI anticancer screen, dose series, 48 h

Row | SMILES | TGI
1 | O=C(O)c1nc(-c2ccccn2)c(-c2ccccn2)nc1C(=O)O | 23.2 µM
2 | COC1=C(Br)[C@H](O)[C@@]2(C=C1Br)CC(C(=O)NCCCCCN=C(N)N)=NO2 | > 10 µM
3 | COc1cc(/C=C2\C[C@H]3[C@@H]4CC=C5C[C@@H](O)CC[C@]5(C)[C@H]4CC[C@]3(C)C2=O)cc(OC)c1OC | 67.8 µM
4 | C#CCn1ncc2c(SCc3ccccc3)ncnc21 | > 100 µM
5 | O=C1c2cc3c(cc2CC12Cc1cc4c(cc1C2=O)CCC4)CCCC3 (configuration not stated) | > 100 µM
6 | COc1ccc2c(c1C)C(=O)C(O)(CC=C(C)C)O2 (configuration not stated) | > 100 µM
7 | Cc1cccc2c1[C@]13OC(C)[C@]4(C)CC5OC(=O)[C@@]1(C)[C@@H]5[C@]34C(=O)O2 (some centres not stated) | > 100 µM
8 | CCN(CC)/C(Cl)=C(Cl)\C(=C1\Nc2ccc(OC)cc21)[N+](=O)[O-] | 67.3 µM

Test system: HCC-2998 colon
Assay: NCI anticancer screen, dose series, 48 h

Row | SMILES | TGI
9 | COc1ccc(CCNC2=CC(=O)c3ncccc3C2=O)cc1OC | 4.68 µM
10 | CN(C)C1=Nc2ccccc2C(=S)N2CSCC12 (configuration not stated) | > 100 µM
11 | CC1(C)OCC2OC3(c4nc(C#N)c(N)o4)OC(C)(C)OC3C2O1 (configuration not stated) | > 100 µM
12 | CCC1OC2C(CC=C(C)C)=C3OC(C)(O)C(C)(CC)C(OC(=O)c4ccccc4)C3=C3OC(=O)C=C1C32 (configuration not stated) | 48.4 µM
13 | COn1cc(C=O)c2ccccc21 | 53.7 µM
14 | C=CCNC1=C2C[C@@H](C)C[C@@H](OC)[C@@H](OC(=O)CCCN)[C@H](C)/C=C(\C)[C@@H](OC(N)=O)[C@H](OC)/C=C\C=C(/C)C(=O)NC(=CC1=O)C2=O | 32.9 µM
15 | O=C1NC(=O)C(c2c[nH]c3cc(Br)ccc23)=C1c1cn(C(c2ccccc2)(c2ccccc2)c2ccccc2)cn1 | 26.4 µM
16 | CC(C)=CCS(=O)c1ccccc1NC1=CC(=O)CC(C)(C)C1 (configuration not stated) | > 100 µM
17 | O=C(O)c1nc(-c2ccccn2)c(-c2ccccn2)nc1C(=O)O | 3.45 µM
18 | COC1=C(Br)[C@H](O)[C@@]2(C=C1Br)CC(C(=O)NCCCCCN=C(N)N)=NO2 | > 10 µM
19 | COc1cc(/C=C2\C[C@H]3[C@@H]4CC=C5C[C@@H](O)CC[C@]5(C)[C@H]4CC[C@]3(C)C2=O)cc(OC)c1OC | 98.1 µM
20 | C#CCn1ncc2c(SCc3ccccc3)ncnc21 | > 100 µM
21 | O=C1c2cc3c(cc2CC12Cc1cc4c(cc1C2=O)CCC4)CCCC3 (configuration not stated) | > 100 µM
22 | COc1ccc2c(c1C)C(=O)C(O)(CC=C(C)C)O2 (configuration not stated) | > 100 µM
23 | Cc1cccc2c1[C@]13OC(C)[C@]4(C)CC5OC(=O)[C@@]1(C)[C@@H]5[C@]34C(=O)O2 (some centres not stated) | > 100 µM
24 | CCN(CC)/C(Cl)=C(Cl)\C(=C1\Nc2ccc(OC)cc21)[N+](=O)[O-] | > 100 µM

Test system: HCT-116 colon
Assay: NCI anticancer screen, dose series, 48 h

Row | SMILES | TGI
25 | COc1ccc(CCNC2=CC(=O)c3ncccc3C2=O)cc1OC | 10.2 µM
26 | CN(C)C1=Nc2ccccc2C(=S)N2CSCC12 (configuration not stated) | > 100 µM
27 | CC1(C)OCC2OC3(c4nc(C#N)c(N)o4)OC(C)(C)OC3C2O1 (configuration not stated) | > 100 µM
28 | CCC1OC2C(CC=C(C)C)=C3OC(C)(O)C(C)(CC)C(OC(=O)c4ccccc4)C3=C3OC(=O)C=C1C32 (configuration not stated) | > 100 µM
29 | COn1cc(C=O)c2ccccc21 | > 100 µM
30 | C=CCNC1=C2C[C@@H](C)C[C@@H](OC)[C@@H](OC(=O)CCCN)[C@H](C)/C=C(\C)[C@@H](OC(N)=O)[C@H](OC)/C=C\C=C(/C)C(=O)NC(=CC1=O)C2=O | 52.9 µM
31 | O=C1NC(=O)C(c2c[nH]c3cc(Br)ccc23)=C1c1cn(C(c2ccccc2)(c2ccccc2)c2ccccc2)cn1 | 23.6 µM
32 | CC(C)=CCS(=O)c1ccccc1NC1=CC(=O)CC(C)(C)C1 (configuration not stated) | > 100 µM
33 | O=C(O)c1nc(-c2ccccn2)c(-c2ccccn2)nc1C(=O)O | 5.6 µM
34 | COC1=C(Br)[C@H](O)[C@@]2(C=C1Br)CC(C(=O)NCCCCCN=C(N)N)=NO2 | > 10 µM
35 | COc1cc(/C=C2\C[C@H]3[C@@H]4CC=C5C[C@@H](O)CC[C@]5(C)[C@H]4CC[C@]3(C)C2=O)cc(OC)c1OC | 47.3 µM
36 | C#CCn1ncc2c(SCc3ccccc3)ncnc21 | > 100 µM
37 | O=C1c2cc3c(cc2CC12Cc1cc4c(cc1C2=O)CCC4)CCCC3 (configuration not stated) | > 100 µM
38 | COc1ccc2c(c1C)C(=O)C(O)(CC=C(C)C)O2 (configuration not stated) | > 100 µM
39 | Cc1cccc2c1[C@]13OC(C)[C@]4(C)CC5OC(=O)[C@@]1(C)[C@@H]5[C@]34C(=O)O2 (some centres not stated) | > 100 µM
40 | CCN(CC)/C(Cl)=C(Cl)\C(=C1\Nc2ccc(OC)cc21)[N+](=O)[O-] | > 100 µM

Test system: SK-MEL-5 melanoma
Assay: NCI anticancer screen, dose series, 48 h

Row | SMILES | TGI
41 | COc1ccc(CCNC2=CC(=O)c3ncccc3C2=O)cc1OC | 0.793 µM
42 | CN(C)C1=Nc2ccccc2C(=S)N2CSCC12 (configuration not stated) | > 100 µM
43 | CC1(C)OCC2OC3(c4nc(C#N)c(N)o4)OC(C)(C)OC3C2O1 (configuration not stated) | > 100 µM
44 | CCC1OC2C(CC=C(C)C)=C3OC(C)(O)C(C)(CC)C(OC(=O)c4ccccc4)C3=C3OC(=O)C=C1C32 (configuration not stated) | 43.7 µM
45 | COn1cc(C=O)c2ccccc21 | > 100 µM
46 | C=CCNC1=C2C[C@@H](C)C[C@@H](OC)[C@@H](OC(=O)CCCN)[C@H](C)/C=C(\C)[C@@H](OC(N)=O)[C@H](OC)/C=C\C=C(/C)C(=O)NC(=CC1=O)C2=O | 33.7 µM
47 | O=C1NC(=O)C(c2c[nH]c3cc(Br)ccc23)=C1c1cn(C(c2ccccc2)(c2ccccc2)c2ccccc2)cn1 | 22.9 µM
48 | CC(C)=CCS(=O)c1ccccc1NC1=CC(=O)CC(C)(C)C1 (configuration not stated) | > 100 µM
49 | O=C(O)c1nc(-c2ccccn2)c(-c2ccccn2)nc1C(=O)O | 8.53 µM
50 | COC1=C(Br)[C@H](O)[C@@]2(C=C1Br)CC(C(=O)NCCCCCN=C(N)N)=NO2 | > 10 µM
51 | COc1cc(/C=C2\C[C@H]3[C@@H]4CC=C5C[C@@H](O)CC[C@]5(C)[C@H]4CC[C@]3(C)C2=O)cc(OC)c1OC | 31.9 µM
52 | C#CCn1ncc2c(SCc3ccccc3)ncnc21 | > 100 µM
